# Non-standard residues stand in square brackets, D forms with d. Residues, ends and D or L forms follow the SMILES beside them. Cha = N[C@@H](CC1CCCCC1)C(=O)O; Ac6c = NC1(C(=O)O)CCCCC1; Nle = CCCC[C@H](N)C(=O)O; Aib = CC(C)(N)C(=O)O
# Molecular target: T1, PTH receptor present on SaOS-2 (human osteosarcoma cells) (Homo sapiens, UniProt Q03431)
# T1 construct: host or cells: SaOS-2 human osteosarcoma cells (intact, confluent monolayers)
# T1 sequence (Q03431 27-593): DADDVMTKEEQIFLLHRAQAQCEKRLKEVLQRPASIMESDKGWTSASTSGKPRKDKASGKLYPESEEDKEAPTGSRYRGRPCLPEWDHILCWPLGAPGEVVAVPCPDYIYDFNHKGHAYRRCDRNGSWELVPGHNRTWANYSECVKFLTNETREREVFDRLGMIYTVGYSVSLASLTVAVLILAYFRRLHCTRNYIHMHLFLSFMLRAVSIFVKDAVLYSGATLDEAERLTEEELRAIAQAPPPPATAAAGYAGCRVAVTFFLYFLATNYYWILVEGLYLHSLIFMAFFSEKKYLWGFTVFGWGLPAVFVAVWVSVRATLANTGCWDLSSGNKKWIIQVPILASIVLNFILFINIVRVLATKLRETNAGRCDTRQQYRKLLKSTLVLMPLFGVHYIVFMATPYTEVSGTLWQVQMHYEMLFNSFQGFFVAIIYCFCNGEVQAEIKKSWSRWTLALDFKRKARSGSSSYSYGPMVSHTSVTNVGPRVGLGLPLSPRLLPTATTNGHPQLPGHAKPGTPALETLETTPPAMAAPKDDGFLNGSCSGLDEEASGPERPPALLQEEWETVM
# Assay: Binding to PTH receptor on SaOS-2 cells (competition with mono-125I-[Nle8,18,Tyr34(3-125I)]bPTH(1-34)NH2)
# Conditions: Table I, 2 hrs at room temperature, read-out: Kd (half maximal inhibition of binding of mono-125I-[Nle8,18, Tyr34(3-125I)]bPTH(1-34)NH2)
# In short: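 Confluent SaOS-2 cells in 5% FBS RPMI were incubated 2 h at room temperature with 10×10^4 cpm mono-125I-[Nle8,18,Tyr34(3-125I)]bPTH(1-34)NH2 plus competing peptide at 10^−11 to 10^−4 M. After washing, cell-bound radioactivity was counted; Kd taken as half-maximal inhibition of tracer binding.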
row,Compound,Kd
1,"CC[C@H](C)[C@H](NC(=O)[C@H](CCC(=O)O)NC(=O)[C@H](CO)NC(=O)[C@@H](NC(=O)[C@@H](N)CO)C(C)C)C(=O)N[C@@H](CCC(N)=O)C(=O)N[C@@H](CC1CCCCC1)C(=O)N[C@@H](CCSC)C(=O)N[C@@H](Cc1c[nH]cn1)C(=O)N[C@@H](CC(N)=O)C(=O)N[C@@H](CC1CCCCC1)C(=O)NCC(=O)N[C@@H](CCCCN)C(=O)N[C@@H](Cc1c[nH]cn1)C(=O)N[C@@H](CC(C)C)C(=O)N[C@@H](CC(N)=O)C(=O)N[C@@H](CO)C(=O)N[C@@H](CCSC)C(=O)NC(C)(C)C(=O)N[C@@H](CCCNC(=N)N)C(=O)N[C@H](C(=O)N[C@@H](CCC(=O)O)C(=O)N[C@@H](Cc1c[nH]c2ccccc12)C(=O)N[C@@H](CC(C)C)C(=O)N[C@@H](CCCNC(=N)N)C(=O)N[C@@H](CCCCN)C(=O)N[C@@H](CCCCN)C(=O)N[C@@H](CC(C)C)C(=O)N[C@@H](CCC(N)=O)C(=O)N[C@@H](CC(=O)O)C(=O)N[C@H](C(=O)N[C@@H](Cc1c[nH]cn1)C(=O)N[C@@H](CC(N)=O)C(=O)N[C@@H](Cc1ccccc1)C(N)=O)C(C)C)C(C)C [[Cha^7,11, Aib^19]hPTH(1-34)NH2] (H-SVSEIQ[Cha]MHN[Cha]GKHLNSM[Aib]RVEWLRKKLQDVHNF-NH2)",7 nM
2,"CCCC[C@H](NC(=O)[C@H](CO)NC(=O)[C@H](CC(N)=O)NC(=O)[C@H](CC(C)C)NC(=O)[C@H](Cc1c[nH]cn1)NC(=O)[C@H](CCCCN)NC(=O)CNC(=O)[C@H](CC1CCCCC1)NC(=O)[C@H](CC(N)=O)NC(=O)[C@H](Cc1c[nH]cn1)NC(=O)[C@H](CCCC)NC(=O)[C@H](CC1CCCCC1)NC(=O)[C@H](CCC(N)=O)NC(=O)[C@@H](NC(=O)[C@H](CCC(=O)O)NC(=O)[C@H](CO)NC(=O)[C@@H](NC(=O)[C@@H](N)CO)C(C)C)[C@@H](C)CC)C(=O)N[C@@H](CCC(=O)O)C(=O)N[C@@H](CCCNC(=N)N)C(=O)N[C@H](C(=O)N[C@@H](CCC(=O)O)C(=O)N[C@@H](Cc1c[nH]c2ccccc12)C(=O)N[C@@H](CC(C)C)C(=O)N[C@@H](CCCNC(=N)N)C(=O)N[C@@H](CCCCN)C(=O)N[C@@H](CCCCN)C(=O)N[C@@H](CC(C)C)C(=O)N[C@@H](CCC(N)=O)C(=O)N[C@@H](CC(=O)O)C(=O)N[C@H](C(=O)N[C@@H](Cc1c[nH]cn1)C(=O)N[C@@H](CC(N)=O)C(=O)NC(C)(C)C(N)=O)C(C)C)C(C)C [[Cha^7,11, Nle^8,18, Aib^34]hPTH(1-34)NH2] (H-SVSEIQ[Cha][Nle]HN[Cha]GKHLNS[Nle]ERVEWLRKKLQDVHN[Aib]-NH2)",30 nM

# Now from value to compound:
row,Kd,Compound
1,6 nM,"CCCC[C@H](NC(=O)[C@H](CO)NC(=O)[C@H](CC(N)=O)NC(=O)[C@H](CC(C)C)NC(=O)[C@H](Cc1c[nH]cn1)NC(=O)[C@H](CCCCN)NC(=O)CNC(=O)[C@H](CC1CCCCC1)NC(=O)[C@H](CC(N)=O)NC(=O)[C@H](Cc1c[nH]cn1)NC(=O)[C@H](CCCC)NC(=O)[C@H](CC1CCCCC1)NC(=O)[C@H](CCC(N)=O)NC(=O)[C@@H](NC(=O)[C@H](CCC(=O)O)NC(=O)[C@H](CO)NC(=O)[C@@H](NC(=O)[C@@H](N)CO)C(C)C)[C@@H](C)CC)C(=O)N[C@@H](CCC(=O)O)C(=O)N[C@@H](CCCNC(=N)N)C(=O)N[C@H](C(=O)N[C@@H](CCC(=O)O)C(=O)N[C@@H](Cc1c[nH]c2ccccc12)C(=O)N[C@@H](CC(C)C)C(=O)N[C@@H](CCCNC(=N)N)C(=O)N[C@@H](CCCCN)C(=O)N[C@@H](CCCCN)C(=O)N[C@@H](CC(C)C)C(=O)N[C@@H](CCC(N)=O)C(=O)N[C@@H](CC(=O)O)C(=O)N[C@H](C(=O)N[C@@H](Cc1c[nH]cn1)C(=O)N[C@@H](CC(N)=O)C(=O)N[C@@H](Cc1ccc(O)cc1)C(N)=O)C(C)C)C(C)C [[Cha^7,11, Nle^8,18, Tyr^34]hPTH(1-34)NH2] (H-SVSEIQ[Cha][Nle]HN[Cha]GKHLNS[Nle]ERVEWLRKKLQDVHNY-NH2)"
2,60 nM,"CC[C@H](C)[C@H](NC(=O)[C@H](CCC(=O)O)NC(=O)[C@H](CO)NC(=O)[C@@H](NC(=O)[C@@H](N)CO)C(C)C)C(=O)N[C@@H](CCC(N)=O)C(=O)N[C@@H](CC(C)C)C(=O)N[C@@H](CCSC)C(=O)N[C@@H](Cc1c[nH]cn1)C(=O)N[C@@H](CC(N)=O)C(=O)N[C@@H](CC(C)C)C(=O)NCC(=O)N[C@@H](CCCCN)C(=O)N[C@@H](Cc1c[nH]cn1)C(=O)N[C@@H](CC(C)C)C(=O)N[C@@H](CC(N)=O)C(=O)N[C@@H](CO)C(=O)N[C@@H](CCSC)C(=O)N[C@@H](CCC(=O)O)C(=O)N[C@@H](CCCNC(=N)N)C(=O)N[C@H](C(=O)N[C@@H](CCC(=O)O)C(=O)N[C@@H](Cc1c[nH]c2ccccc12)C(=O)N[C@@H](CC(C)C)C(=O)N[C@@H](CCCNC(=N)N)C(=O)N[C@@H](CCCCN)C(=O)N[C@@H](CCCCN)C(=O)N[C@@H](CC1CCCCC1)C(=O)N[C@@H](CCC(N)=O)C(=O)N[C@@H](CC(=O)O)C(=O)N[C@@H](CC1CCCCC1)C(=O)N[C@@H](Cc1c[nH]cn1)C(=O)N[C@@H](CC(N)=O)C(=O)N[C@@H](Cc1ccccc1)C(N)=O)C(C)C [[Cha^28,31]hPTH(1-34)NH2] (H-SVSEIQLMHNLGKHLNSMERVEWLRKK[Cha]QD[Cha]HNF-NH2)"

# Same assay, conditions: Table II, 2 hrs at room temperature, read-out: Kd (half maximal inhibition of binding of mono-125I-[Nle8,18, Tyr34(3-125I)]bPTH(1-34)NH2)
row,Kd,Compound
1,230 nM,"CC[C@H](C)[C@H](NC(=O)[C@H](CO)NC(=O)[C@H](CCCCN)NC(=O)CNC(=O)[C@H](CCCCN)NC(=O)[C@H](CC(=O)O)NC(=O)[C@H](Cc1c[nH]cn1)NC(=O)[C@H](CC(C)C)NC(=O)[C@H](CC(C)C)NC(=O)[C@H](CCC(N)=O)NC(=O)[C@H](Cc1c[nH]cn1)NC(=O)[C@H](CCC(=O)O)NC(=O)[C@H](CO)NC(=O)[C@@H](NC(=O)[C@H](C)N)C(C)C)C(=O)N[C@@H](CCC(N)=O)C(=O)N[C@@H](CC(=O)O)C(=O)N[C@@H](CC(C)C)C(=O)N[C@@H](CCCNC(=N)N)C(=O)N[C@@H](CCCNC(=N)N)C(=O)N[C@@H](CCCNC(=N)N)C(=O)N[C@@H](CCC(=O)O)C(=O)N[C@@H](CC(C)C)C(=O)N[C@@H](CC(C)C)C(=O)N[C@@H](CCC(=O)O)C(=O)N[C@@H](CCCCN)C(=O)NC1(C(=O)N[C@@H](CC(C)C)C(=O)NC(C)(C)C(=O)N[C@@H](CCCCN)C(=O)N[C@@H](CC(C)C)C(=O)N[C@@H](Cc2c[nH]cn2)C(=O)N[C@H](C(=O)N[C@@H](C)C(N)=O)[C@@H](C)O)CCCCC1 [[Glu^22,25, Leu^23,28,31, Lys^26,30, Ahc^27, Aib^29]hPTHrP(1-34)NH2] (H-AVSEHQLLHDKGKSIQDLRRRELLEK[Ac6c]L[Aib]KLHTA-NH2; N-terminus assumed)"
2,230 nM,"CC[C@H](C)[C@H](NC(=O)[C@H](CO)NC(=O)[C@H](CCCCN)NC(=O)CNC(=O)[C@H](CCCCN)NC(=O)[C@H](CC(=O)O)NC(=O)[C@H](Cc1c[nH]cn1)NC(=O)[C@H](CC(C)C)NC(=O)[C@H](CC(C)C)NC(=O)[C@H](CCC(N)=O)NC(=O)[C@H](Cc1c[nH]cn1)NC(=O)[C@H](CCC(=O)O)NC(=O)[C@H](CO)NC(=O)[C@@H](NC(=O)[C@H](C)N)C(C)C)C(=O)N[C@@H](CCC(N)=O)C(=O)N[C@@H](CC(=O)O)C(=O)N[C@@H](CC(C)C)C(=O)N[C@@H](CCCNC(=N)N)C(=O)N[C@@H](CCCNC(=N)N)C(=O)N[C@@H](CCCNC(=N)N)C(=O)N[C@@H](CCC(=O)O)C(=O)N[C@@H](CC(C)C)C(=O)N[C@@H](CC(C)C)C(=O)N[C@@H](CCC(=O)O)C(=O)N[C@@H](CCCCN)C(=O)N[C@@H](CC(C)C)C(=O)N[C@@H](CC(C)C)C(=O)N[C@@H](CCC(=O)O)C(=O)NC1(C(=O)N[C@@H](CC(C)C)C(=O)N[C@@H](Cc2c[nH]cn2)C(=O)N[C@H](C(=O)N[C@@H](C)C(N)=O)[C@@H](C)O)CCCCC1 [[Glu^22,25,29, Leu^23,28,31, Lys^26, Ahc^30]hPTHrP(1-34)NH2] (H-AVSEHQLLHDKGKSIQDLRRRELLEKLLE[Ac6c]LHTA-NH2; N-terminus assumed)"
